From patent US20250040554A1, “NEW USES OF PHENMEDIPHAM AND HERBICIDAL COMBINATIONS COMPRISING PHENMEDIPHAM” (BAYER AKTIENGESELLSCHAFT, priority 2021, published 2025)

Columns and labels:
Format in all cases: in vivo
[1] = tested on: PANRA=Panicum ramosum; test: Weed control field trial PANRA; details: 15 DAA
Excerpt: (§1) The respective (combinations of) materials were applied to weed plants in the greenhouse or in the field at the respective growth stage indicated hereinafter for the different weed species mentioned below. The respective (combinations of) active ingredients were also applied to corn, cotton and soybean crop plants, and the selectivity (damage) in these crop plants rated (assessed).
(§2) Visual scoring of the damage to the trial plants took place after the time mentioned in the respective Table—indicated in number of Days After Application (DAA). Damage and development of all above-ground parts of the respective plants was recorded. Visual rating was done on a percentage scale in relation to the untreated control (100%=all plants dead; 50%=green plant biomass reduced by 50%, and 0%=no discernible difference=like control plot).
(§3) wherein • A, B=respective value in percent of active ingredient A at a dose rate of a g/ha, ingredient B at a dose rate of b g/ha • E^C=Expected value according to Colby (S. R. Colby; Weeds 15 (1967), 20-22) in % at a dose rate of a+b, each in g/ha • Δ=Difference (in %) between measured value E and expected value E^C (%) (measured value minus expected value)
(§4) After the harmful plants had emerged, they were treated, at the respective growth stage indicated, with the respective materials as indicated at a water application rate of 187 L/ha.
(§5) After the treatment (15 days after the treatment), the herbicidal activity of respective material was scored visually at the same time by comparing the differently treated plots with the untreated control plots. The score figures of the different plots were averaged.
(§6) The dose rates of herbicidal ingredients used in each case are indicated for the respective active ingredient and refer to the amount of active ingredient per hectare (g/ha).
(§7) The weed control activity of different (combinations of) herbicidal active ingredients was investigated in field trials for the following weed species: • AMARE=Amaranthus retroflexus • KCHSC=Kochia scoparia • PANRA=Panicum ramosum
(§8) The growth stage of AMARE was BBCH 19, the growth stage of KCHSC was BBCH 19 and the growth stage of PANRA was BBCH 22 at the time of application of the respective material.
(§9) Phenmedipham and the respective aroylcyclohexanedione herbicide were applied at varying application rates (Dose Rate) to the different species of weed plants. The results are shown in Tables 4a to 4d as the % control when assessed 15 days after application (DAA), respectively.
(§10) In all the trials of Tables 4a to 4d Mero® (rapeseed oil methyl ester) was added to the respective spray mixture in an amount corresponding to 1 L/ha for PMP, 1 L/ha for the respective aroylcyclohexanedione herbicide, and 2 L/ha for mixtures of PMP+the respective aroylcyclohexanedione herbicide.

[2] = tested on: CCHEC=Cenchrus echinatus; test: Weed control field trial CCHEC
Excerpt: as §1, §2
(§11) The trials in the greenhouse were sprayed with an application volume of 300 L/ha with an automated track sprayer. The plots in the field were sprayed with an application volume of 140 L/ha with a hand held spray boom.
as §3
(§12) The growth stages of the different weed species are indicated according to the BBCH monograph “Growth stages of mono- and dicotyledonous plants”, 2nd edition, 2001, ed. Uwe Meier, Federal Biological Research Centre for Agriculture and Forestry (Biologische Bundesanstalt für Land und Forstwirtschaft).
(§13) After the harmful plants had emerged, they were treated, at the respective growth stage indicated, with the respective materials as indicated at a water application rate of 140 L/ha.
(§14) After the treatment (21 or 35 days after application of the respective material), the herbicidal activity of respective material was scored visually at the same time by comparing the differently treated plots with the untreated control plots. The score figures of the different plots were averaged.
as §6
(§15) The weed control activity of different (combinations of) herbicidal active ingredients was investigated in field trials for the following weed species: • AMAVI=Amaranthus viridis • IPOAO=Ipomoea aristolochiaefolia • EPHHL=Euphorbia heterophylla • BIDPI=Bidens pilosa • BRADC=Brachiaria decumbens • ELEIN=Eleusine indica • CCHEC=Cenchrus echinatus
(§16) The growth stage of AMAVI was BBCH 13, the growth stage of IPOAO was BBCH 15, the growth stage of EPHHL was BBCH 13, the growth stage of BIDPI was BBCH 14, the growth stage of BRADC was BBCH 23, the growth stage of ELEIN was BBCH 11 and the growth stage of CCHEC was BBCH 12 at the time of application of the respective material.
(§17) Phenmedipham and Mesotrione were applied at varying application rates (Dose Rate) to the different species of weed plants. The results are shown in Tables 3a to 3e as the % control when assessed 21 and 35 days after application (DAA), respectively.
(§18) In all the trials of Tables 3a to 3e Mero® (rapeseed oil methyl ester) was added to the respective spray mixture in an amount corresponding to 1 L/ha for PMP, 1 L/ha for MST, and 2 L/ha for mixtures of PMP+MST.

[3] = tested on: STEME=Stellaria media; test: Greenhouse weed control trial STEME; details: 25 DAA
Excerpt: as §1, §2, §11
(§19) In greenhouse selectivity trials and trials herbicidal activity trials against weed plants were investigated in post-emergence application of the respective material(s).
(§20) Herbicidal activity against different weeds (undesired plants) was calculated as follows.
as §3
(§21) • measured value E is greater than E^C:->synergism (+Δ) • measured value E is equal to E^C:->additive effect • measured value E is smaller than E^C:->antagonism (−Δ)
(§22) The weed control activity of different (combinations of) materials was investigated in greenhouse trials for the following weed species: • STEME=Stellaria media • ECHCG=Echinochloa crus-galli • BROTE=Bromus tectorum
(§23) Phenmedipham amd Mesotrione were applied at varying application rates (Dose Rate) to the weed plant species STEME, ECHCG and BROTE. The results are shown in Tables 2a to 2c as the % control when assessed 25 days after application (25 DAA).
(§24) In all the trials of Table Tables 2a to 2c Mero® (rapeseed oil methyl ester) was added to the respective spray mixture in an amount corresponding to 1 L/ha for PMP, 1 L/ha for MST, and 2 L/ha for mixtures of PMP+MST.

[4] = tested on: BROTE=Bromus tectorum; test: Greenhouse weed control trial BROTE; details: 25 DAA
Excerpt: as §1, §2, §11, §19, §20, §3, §21, §22, §23, §24

[5] = tested on: KCHSC=Kochia scoparia; test: Weed control field trial KCHSC; details: 15 DAA
Excerpt: as §1, §2, §3, §4, §5, §6, §7, §8, §9, §10

[6] = tested on: IPOAO=Ipomoea aristolochiaefolia; test: Weed control field trial IPOAO
Excerpt: as §1, §2, §11, §3, §12, §13, §14, §6, §15, §16, §17, §18

COC(=O)Nc1cccc(OC(=O)Nc2cccc(C)c2)c1 [PMP, 3-[(methoxyformyl)amino]phenyl (3-methylphenyl)carbamate]
% control PANRA ([1]; 150 g/ha): 0% | % control PANRA ([1]; 300 g/ha): 5% | % control CCHEC ([2]; 75 g/ha, 21 DAA): 0% | % control CCHEC ([2]; 75 g/ha, 35 DAA): 0% | % control CCHEC ([2]; 100 g/ha, 21 DAA): 0% | % control CCHEC ([2]; 100 g/ha, 35 DAA): 0% | % control CCHEC ([2]; 125 g/ha, 21 DAA): 0% | % control CCHEC ([2]; 125 g/ha, 35 DAA): 0% | % control CCHEC ([2]; 250 g/ha, 21 DAA): 0% | % control CCHEC ([2]; 250 g/ha, 35 DAA): 0% | % control STEME ([3]; 12.5 g/ha): 0% | % control STEME ([3]; 25 g/ha): 0% | % control STEME ([3]; 50 g/ha): 0% | % control STEME ([3]; 75 g/ha): 0% | % control STEME ([3]; 100 g/ha): 0% | % control STEME ([3]; 125 g/ha): 25% | % control STEME ([3]; 300 g/ha): 77% | % control BROTE ([4]; 12.5 g/ha): 0% | % control BROTE ([4]; 25 g/ha): 0% | % control BROTE ([4]; 50 g/ha): 9% | % control BROTE ([4]; 75 g/ha): 0% | % control BROTE ([4]; 100 g/ha): 0% | % control BROTE ([4]; 125 g/ha): 0% | % control BROTE ([4]; 300 g/ha): 20% | % control KCHSC ([5]; 150 g/ha): 0% | % control KCHSC ([5]; 300 g/ha): 5% | % control IPOAO ([6]; 75 g/ha, 21 DAA): 0% | % control IPOAO ([6]; 75 g/ha, 35 DAA): 0% | % control IPOAO ([6]; 100 g/ha, 21 DAA): 0% | % control IPOAO ([6]; 100 g/ha, 35 DAA): 0% | % control IPOAO ([6]; 125 g/ha, 21 DAA): 0% | % control IPOAO ([6]; 125 g/ha, 35 DAA): 0% | % control IPOAO ([6]; 250 g/ha, 21 DAA): 0% | % control IPOAO ([6]; 250 g/ha, 35 DAA): 0%

CS(=O)(=O)c1ccc(C(=O)C2C(=O)CCCC2=O)c([N+](=O)[O-])c1 [MST, 2-[4-(methylsulfonyl)-2-nitrobenzoyl]cyclohexane-1,3-dione]
% control PANRA ([1]; 20 g/ha): 15% | % control CCHEC ([2]; 25 g/ha, 35 DAA): 0% | % control CCHEC ([2]; 50 g/ha, 21 DAA): 17% | % control CCHEC ([2]; 50 g/ha, 35 DAA): 0% | % control STEME ([3]; 12.5 g/ha): 89% | % control STEME ([3]; 25 g/ha): 99% | % control STEME ([3]; 50 g/ha): 99% | % control STEME ([3]; 75 g/ha): 99% | % control BROTE ([4]; 12.5 g/ha): 30% | % control BROTE ([4]; 25 g/ha): 30% | % control BROTE ([4]; 50 g/ha): 35% | % control BROTE ([4]; 75 g/ha): 40% | % control KCHSC ([5]; 20 g/ha): 40% | % control KCHSC ([5]; 40 g/ha): 45% | % control KCHSC ([5]; 60 g/ha): 45% | % control KCHSC ([5]; 80 g/ha): 45% | % control KCHSC ([5]; 100 g/ha): 50% | % control IPOAO ([6]; 25 g/ha, 21 DAA): 0% | % control IPOAO ([6]; 25 g/ha, 35 DAA): 0% | % control IPOAO ([6]; 50 g/ha, 21 DAA): 17% | % control IPOAO ([6]; 50 g/ha, 35 DAA): 0%
